From US20220386582A1, “METHOD AND DEVICE TO TRAP ACARIDS” (DOMOBIOS, priority 2015, published 2022)

How the values were obtained:
mites = settings: washing at low temperature, final concentration of 0.03% benzyl benzoate (Bischoff et al 1998); cited from earlier work
[1] = system: Dermatophagoides pteronyssinus; test: Mini-mattress trap: attraction capabilities of attracting solutions sprayed on felt; assay type: in vivo
Protocol: (§1) Rearing: The species studied were Dermatophagoides pteronyssinus and Dermatophagoides farinae, house dust mite common in mattresses in Eurasia. Mites are reared in Petri dishes and fed with human skin flakes (skin and whiskers obtained by cleaning electric […]). All mites were reared together under defined conditions (20° C. and 75% relative humidity). The experiments took place in a room kept at 20° C. and 40% relative humidity. Aim of the experiments: The aim was to test the trap in condition similar to the conditions that will be met by the user of the trap. Materials and methods: The mattresses were built at a smaller scale (15× reduction) than usual mattresses. These mini-mattresses are made in polyurethane and covered by a cover in cotton. They were infested with mites since at least 3 months. The fabric was a felt of 20 mg/cm^2 and is a rectangle of 10 cm×20 cm. It was placed on the mini-mattress. Then the attracting solution was sprayed on the fabric with a spray bottle. The fabric was left in place on the mattress during one hour. During this time, the mites moved in the felt. It is very difficult to count directly the mites hidden in the mattress and in the fabric. Therefore, we used a Berlèse funnel which is a device that is usually used to separate insects from litter. Here, it was used to separate the mites from their mattress or from the fabric. The Berlèse funnel uses a light bulb to heat and dry the mattress, thus driving the mites downwards through a screen and into a collecting jar containing some food and some water. […] They are attracted by a source of moisture and the smell of food. The mattress or blanket were therefore placed in the funnel (FIG. 2). The mites went downwards in the direction of the jar, then in the jar. The harvest of the jar containing the mites took place after one day. Mites had then 24 hours to migrate to the jar collector. As a substantial proportion of the population is immobile (moulting mites), trapping is less efficient than it would be otherwise and estimate of population size that is trapped are likely to be biased. To avoid this bias and make a proper assessment of the populations in infested mattresses, mattresses were carefully brushed with a soft brush at the end of the manipulation meaning that immobile mites and eggs also fall into the funnel. Fabric was carefully brushed too. The Berlèze funnel was rinsed with ethanol. Thus, mites still on the inner wall of the funnel were driven by ethanol in the jar collector. At the end of the experiment, the jar contained: the food used as attracting to mites, a small amount of water also used for attracting, mites, and ethanol. The jar was emptied into a Petri dish and we counted mites under binocular. Counting of mites was made under binocular microscope (magnification 10×). The set-up is illuminated with a cold lamp (KL 1500 LCD, Schott ●). The felt was sprayed with different attracting compositions: a solution of lavandulol, a solution of Tween 60, a combination of lavandulol and Tween 60, a solution of citral, and the attracting solution commercialized under the brand name Acar'up were compared at various dilutions.

Dermatophagoides farinae = test: as above; assay type: in vivo
Protocol: as §1

[2] = system: Dermatophagoides pteronyssinus; test: Binary choice test in Petri dish, colored felt with attracting agent versus white felt with water; assay type: in vivo
Protocol: Aim of the experiments: All experiments are tests of binary choice aiming to determine the preference of mites and the place where they prefer to stay (at least for 30 min).
Rearing: The species studied was Dermatophagoides pteronyssinus, a dust mite common in mattresses in Eurasia. Mites are reared in Petri dishes and fed with human skin flakes (skin and whiskers obtained by cleaning electric shavers). All mites were reared together under defined conditions (20° C. and 75% relative humidity). The experiments took place in a room kept at 20° C. and 40% relative humidity.
Materials and methods: A group of mites (20<n<40) was placed in the center of a Petri dish (ø5.5 cm) around which two semi-circles of felt were placed (see FIG. 1). The pieces of felts were 70 mg/cm^2, their thickness was 2 mm. One felt is the control (control felt), for instance impregnated with water; the other felt is the felt with the tested item, for instance the felt that is impregnated with a chemical compound that is tested.
Mites move spontaneously towards one of the two felts.
Observations and counting of mites was made under binocular microscope (magnification 10×). The set-up is illuminated with a cold lamp (KL 1500 LCD, Schott ●), the lighting is symmetric and the light intensity was 50Klux. The experimental conditions were controlled in the room (T° C.: 19-22° C. and RH 40%). […]

[3] = Dilution 10^−6 (* mixture of a lavandulol solution at 10^−6 and a Tween 60 solution at 10^−6)

Molecule	mite control in delicate garments (mites)	attraction capabilities, percentage of mites ([1]; Dilution 10^−3)	attraction capabilities, percentage of mites [1, 3]	attraction capabilities, percentage of mites ([1]; Dilution 10^−9)	attraction capabilities, percentage of mites ([1]; Dilution Undiluted)	attraction capabilities, percentage of mites (Dermatophagoides farinae; Dilution 10^−3)	attraction capabilities, percentage of mites (Dermatophagoides farinae; [3])	attraction capabilities, percentage of mites (Dermatophagoides farinae; Dilution 10^−9)	attraction capabilities, percentage of mites (Dermatophagoides farinae; Dilution Undiluted)	attraction capabilities, percentage of mites (Dermatophagoides farinae; Dilution 10^−1)	Mean (choice of mites for the tested felt) ([2]; blue felt + 1 μl attracting agent (dil 10^−6) versus white felt + 1 μl H2O, 18 trials)	migration of the mites toward the blue felt ([2]; blue felt in combination with citral)
O=C(OCc1ccccc1)c1ccccc1 [benzyl benzoate]	possible to achieve mite control	–	–	–	–	–	–	–	–	–	–	–
Polyethylene glycol sorbitan monostearate [Tween 60]	–	70%	78%	57%	14%	54%	81%	39%	7%	–	–	–
CC(C)=CCCC(C)=CC=O [Citral, 3,7-dimethyl-2,6-octadienal, reference compound]	–	23%	76%	56%	3%	36%	48%	43%	5%	49%	0.84	84%
